≈ marks a conversion by molar mass, not a printed value.
Legend:
[1] = test system: DT-R cells (pRRE3-luc-transfected v-ki-ras-transformed NIH3T3 cells); signal derived from Ras oncogene products; assay: Inhibitory effect against cellular signaling derived from Ras oncogene products: luciferase reporter, dissociation of DT-R from DT-C activity (MAC); assay type: cell-based, mouse; settings: minimal tested concentration at which luciferase activities of DT-C cells and DT-R cells dissociated
In short: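 DT-R (pRRE3-luc) and control DT-C (pGV-P) v-Ki-ras NIH3T3 cells were exposed 24 h to compound in 3-fold dilutions in DMEM/10% FCS at 37 °C, then lysed for luciferase luminescence. MAC is the lowest tested concentration at which DT-R and DT-C activities dissociate.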

[2] = test system: DT-C cells (pGV-P-transfected v-ki-ras-transformed NIH3T3 cells); assay: Luciferase activity in control DT-C cells (IC50-C): non-specific transcription-inhibitory effect or cytotoxicity; assay type: cell-based, mouse; settings: tested concentration nearest to 50% inhibition in DT-C cells; index of non-specific transcription inhibition or cytotoxicity
From the text: Test Example 1 Inhibitory Effect Against Cellular Signaling Derived From Ras Oncogene Products
1) Establishment of Cell Lines Used in Assay
Based on the reporter plasmid (pGV-P (Toyo Ink, Japan)), in which luciferase gene was ligated to SV40-derived minimal promoter, we constructed a plasmid designated pRRE3-luc by inserting 3 copies of chemically synthesized oligonucleotides (Sequence: CAGGATATGACTCT, derived from mouse NVL-3 (M. A. Reddy et al.(1992)Mol. Endocrinol., 6, 1051)) into upstream of the promoter. v-ki-ras-transformed NIH3T3 cells (DT cells, provided by Dr. Makoto Noda (Kyoto Univ., School of medicine)) were transfected with this plasmid by liposome-mediated transfection and transfected cell lines stably incorporated and maintained each plasmid were obtained. We named pGV-P and pRRE3-transfected cell line as DT-C and DT-R, respectively and used in the assay described below.
2) Preparation of Samples
i) All the cell lines were cultured in Dulbecco's Modified Essential Medium (DMEM: 10% Fetal Calf Serum(FCS: Hyclone, USA)) including […] kanamycin (Meiji Seika, Japan) in humidified incubator under condition of 5% CO2 at 37° C.
ii) DT-C and DT-R cells were seeded at 2500 cells/well into flat-bottom 96 well multiplate (Sumitomo bakelite) and incubated for 24 hours.
iii) Test compounds were prepared as 1 mg/ml DMSO solution.
iv) The solution of test compounds were added to the culture. Tested compounds are used at the concentration from […] to 0.51 ng/ml with by 3-fold dilution.
v) After 24 hours, the culture supernatant was completely aspirated and […] of cell-lysing solution (PGC-50 (Toyo Ink, Japan)) was added before cells were dried up. In order to the cells were lysed completely, multiwell plates were left at room temperature for 10 to 30 min. The plates were wrapped up and stored at −20° C. till the day of measurement.
3) Measurement of Samples
i) Melt the samples by putting 96 well multiplate at 37° C. and add 90 μl/well 25 mM Tris (pH 7.5).
ii) Transfer 50 μl of the sample (110 μl) to the 96 well microplate for measurement (Microlite 1 (Dynatech)).
iii) Measure the samples by the luminometer, LUMINOUS CT9000D (Dia-Yatron, Japan). We used Pickagene luminescence kit PGL2000 or LT2.0 (Toyo Ink, Japan) as substrates for luminescence measurement (50 μl/well).
4) Judgment of the Results
i) The luciferase activity of DT-C cells and DT-R cells were plotted in the graph where the relative activity and the compound concentration were expressed as Y-axis and X-axis, respectively. We judged by the degree of dissociation between the activities of DT-C cells and DT-R cells as an index.
ii) Concretely, efficacy of the compound was expressed by two values described below.
b) Among the points of concentration tested, the concentration which is the nearest to 50% inhibition concentration at DT-C cells (IC50-C), was shown as an index of non-specific transcription-inhibitory effect or of cytotoxicity. In case of positive compounds, 50% inhibition concentration above the area of active concentration in DT-C cells was expressed as IC50-C.

[3] = test system: human squamous lung cancer Ma44; assay: In vitro cell growth inhibition test, MTT assay; assay type: cell-based; settings: MTT assay 4 days after compound addition
In short: (§1)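 Cells from several human cancer lines, PANC-1 among them, were tested in vitro and viable growth was scored with the MTT assay.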

[4] = test system: human squamous lung cancer RERF-RC-AI; assay: In vitro cell growth inhibition test, MTT assay; assay type: cell-based; settings: MTT assay 4 days after compound addition
In short: as §1

human colon cancer HT29 = assay: In vitro cell growth inhibition test, MTT assay; assay type: cell-based; settings: MTT assay 4 days after compound addition
In short: as §1

[5] = test system: human lung adenocarcinoma A549; assay: In vitro cell growth inhibition test, MTT assay; assay type: cell-based; settings: MTT assay 4 days after compound addition
In short: as §1

[6] = test system: human pancreas cancer PANC-1; assay: In vitro cell growth inhibition test, MTT assay; assay type: cell-based; settings: MTT assay 4 days after compound addition
In short: as §1

Structure (SMILES) | MAC (Minimal Active Concentration) [1] [µg/mL] | IC50-C [2] [ng/mL] | IC50, Ma44 [3] [ng/mL] | IC50, RERF-LC-AI [4] [ng/mL] | IC50, HT29 (human colon cancer HT29) [ng/mL] | IC50, A549 [5] [ng/mL] | IC50, PANC-1 [6] [ng/mL]
CCNC(=Nc1nc(C)ncc1CSc1nnc(-c2ccc(F)cc2N)o1)NCC [Compound A-49] | <0.000508 | 3330 (≈ 7.73 µM) | 3.2 (≈ 0.00743 µM) | 1.6 (≈ 0.00372 µM) | 2.8 (≈ 0.0065 µM) |  | 
CCNC(=Nc1nc(C)ncc1CSc1nnc(-c2ccc(N)cc2O)o1)NCC [Compound A-96] | 0.370 | >10000 |  |  |  |  | 
CCCNC(=Nc1nc(C)ncc1CSc1nnc(-c2ccc(N)cc2)o1)NCCC.Cl.Cl [Compound A-160] | 0.0137 | >10000 |  |  |  |  | 
CCNC(=Nc1nc(C)ncc1CSc1nnc(-c2ccc([N+](=O)[O-])cc2)o1)NC.Cl [Compound A-163] | 0.0137 | >10000 |  |  |  |  | 
CCCNC(=Nc1nc(C)ncc1CSc1nnc(-c2ccc([N+](=O)[O-])cc2)o1)NC.Cl [Compound A-164] | 0.0137 | >10000 |  |  |  |  | 
CCNC(=Nc1ncncc1CSc1nnc(-c2ccc([N+](=O)[O-])cc2)o1)NCC [Compound A-172] | 0.0137 |  | 3.8 (≈ 0.00887 µM) | 1.5 (≈ 0.0035 µM) | 3.3 (≈ 0.0077 µM) | 7.5 (≈ 0.0175 µM) | 3.1 (≈ 0.00723 µM)
CNC(=Nc1ncncc1CSc1nnc(-c2ccc([N+](=O)[O-])cc2)o1)NC [Compound A-173] | 0.123 |  | 7.2 (≈ 0.018 µM) | 3.7 (≈ 0.00924 µM) | 6 (≈ 0.015 µM) | 17 (≈ 0.0425 µM) | 7.2 (≈ 0.018 µM)
CCNC(=Nc1ncncc1CSc1nnc(-c2ccc(N)cc2)o1)NC [Compound A-176] | 0.123 |  | 18 (≈ 0.0468 µM) | 3.2 (≈ 0.00832 µM) | 6 (≈ 0.0156 µM) | 12 (≈ 0.0312 µM) | 5.6 (≈ 0.0146 µM)
CCNC(=Nc1ncncc1CSc1nnc(-c2ccc([N+](=O)[O-])cc2)o1)NC [Compound A-177] | 0.0412 |  | 4.3 (≈ 0.0104 µM) | 2 (≈ 0.00483 µM) | 3.7 (≈ 0.00893 µM) | 8.2 (≈ 0.0198 µM) | 3.8 (≈ 0.00917 µM)
CCCNC(=Nc1ncncc1CSc1nnc(-c2ccc(N)cc2)o1)NCC [Compound A-178] | 0.0412 |  | 24 (≈ 0.0582 µM) | 3.6 (≈ 0.00873 µM) | 6.7 (≈ 0.0162 µM) | 14 (≈ 0.0339 µM) | 5 (≈ 0.0121 µM)
CCCNC(=Nc1ncncc1CSc1nnc(-c2ccc([N+](=O)[O-])cc2)o1)NCC [Compound A-179] | 0.0137 |  | 2.6 (≈ 0.00588 µM) | 2 (≈ 0.00452 µM) | 6.3 (≈ 0.0142 µM) | 14 (≈ 0.0316 µM) | 1.8 (≈ 0.00407 µM)
CCCCNC(=Nc1nc(C)ncc1CSc1nnc(-c2ccc(N)cc2)o1)NCC [Compound A-180] | 0.00457 |  | 16 (≈ 0.0363 µM) | 8 (≈ 0.0182 µM) | 12 (≈ 0.0272 µM) | 14 (≈ 0.0318 µM) | 8.1 (≈ 0.0184 µM)
C=CCNC(=Nc1nc(C)ncc1CSc1nnc(-c2ccc([N+](=O)[O-])cc2)o1)NCC [Compound A-181] | 0.0137 |  | 6.5 (≈ 0.0143 µM) | 5.1 (≈ 0.0112 µM) | 6.1 (≈ 0.0134 µM) | 8.7 (≈ 0.0191 µM) | 5.7 (≈ 0.0125 µM)
C#CCNC(=Nc1nc(C)ncc1CSc1nnc(-c2ccc([N+](=O)[O-])cc2)o1)NCC [Compound A-183] | 0.00457 |  | 2.1 (≈ 0.00464 µM) | 1.3 (≈ 0.00287 µM) | 2 (≈ 0.00442 µM) | 3.9 (≈ 0.00862 µM) | 2.6 (≈ 0.00575 µM)
CCNC(N)=Nc1nc(C)ncc1CSc1nnc(-c2ccc(N)cc2)o1 [Compound A-184] | 0.0412 |  | 16 (≈ 0.0416 µM) | 2.7 (≈ 0.00702 µM) | 7.7 (≈ 0.02 µM) | 10 (≈ 0.026 µM) | 3.2 (≈ 0.00832 µM)
CCNC(N)=Nc1nc(C)ncc1CSc1nnc(-c2ccc([N+](=O)[O-])cc2)o1 [Compound A-185] | 0.0137 |  | 6.2 (≈ 0.015 µM) | 2.9 (≈ 0.007 µM) | 6.4 (≈ 0.0154 µM) | 13 (≈ 0.0314 µM) | 4.1 (≈ 0.00989 µM)
CCCNC(=Nc1nc(C)ncc1CSc1nnc(-c2ccc([N+](=O)[O-])cc2)o1)NCC.Cl [Compound A-188] | 0.0137 |  | 16 | 12 | 10 | 52 | 17
CCNC(=Nc1nc(C)ncc1CSc1nnc(-c2ccc(N)cc2OC)o1)NCC.Cl [Compound A-189] | 0.0412 |  | 85 | 16 | 32 | 51 | 21
CCNC(=Nc1nc(C)ncc1CSc1nnc(-c2cccnc2N)o1)NCC [Compound D-1] | 1.11 | >10000 |  |  |  |  | 
CCNC(=Nc1nc(C)ncc1CSc1nnc(-c2ccc([N+](=O)[O-])cn2)o1)NCC [Compound D-45] | 1.11 |  | 740 (≈ 1.67 µM) | 62 (≈ 0.14 µM) | 38 (≈ 0.0857 µM) | 6.1 (≈ 0.0138 µM) | 120 (≈ 0.271 µM)

Source: patent publication US6420367B1, “Pyrimidine derivatives exhibiting antitumor activity” (Shionogo & Co., Ltd., priority 1998, dated 2002)
